Test results as given in patent US11441119B2, “Culture media comprising n-Acyl-X-glutamine dipeptides” (Evonik Operations GmbH, priority 2017, dated 2022).
Residues, ends and D or L forms follow the SMILES beside them.

Key:
[1] = test system: Chinese Hamster Ovary (CHO) cells (Subclone DG44); assay: Batch cultivation of CHO DG44 cells in glutamine-free PowerCHO-2 CD medium supplemented with glutamine sources: growth and productivity; assay type: cell-based; conditions: for Relative cell-specific productivity: relative titer/IVCD relative to 100% free glutamine; for Relative time-related productivity: relative titer/cultivation time relative to free glutamine; for Relative titer / Cultivation time until 80% viability / Integrated viable cell density (IVCD): total glutamine 8 mM; for Relative titer: relative to titer of 100% free glutamine; for Cultivation time until 80% viability / Integrated viable cell density (IVCD): third passage; for Integrated viable cell density (IVCD): until viability below 80%; for Performance in batch cultivation, in words (titer, productivities): comparison of the supplements of Tables 1 and 2
Experimental: Acetyl-A-Q was mixed with free glutamine or A-Q in molar ratios between 0 and 100%. The mixtures were added to a glutamine-free medium (PowerCHO-2 CD, Lonza AG, Visp, Switzerland) to obtain a total glutamine concentration of 8 mM in the final medium. Growth and productivity were measured using Chinese Hamster Ovary (CHO) cells (Subclone DG44; Life Technologies Cooperation, Carlsbad, USA). Cultivation was continued up to the point where the viability of the culture dropped below 80%. Data from the third passage was used. All titer-related information is given relative to the titer of 100% free glutamine. Accordingly, the relative cell-specific productivity was obtained by first dividing the relative titer by the integrated viable cell density (IVCD), then dividing this number by the titer/IVCD ratio for 100% free glutamine. The relative time-specific productivity was obtained by dividing the relative titer by the cultivation duration until the sampling, then dividing this number by the titer/cultivation time ratio for free glutamine. In a second set of experiments within the same experimental campaign, acetyl-A-Q was mixed with A-Q and tested under the same conditions as described above. The 100% points for acetyl-A-Q as well as the free glutamine reference are identical to the first example.

[2] = test system: Chinese Hamster Ovary (CHO) cells (Subclone DG44); assay: Fed-batch cultivation of CHO DG44 cells with glutamine sources in basal medium and feed supplement: growth and productivity; assay type: cell-based
Experimental: Free glutamine, A-Q or Acetyl-A-Q were added to a glutamine-free medium (PowerCHO-2 CD, Lonza AG, Visp, Switzerland) to obtain a total glutamine concentration of 8 mM in the final medium.
In addition, these substances as well as a 75% mixture of acetyl-A-Q and A-Q were added to a glutamine-free formulation of a commercial feed supplement (CHOMACS Feed Supplement, Miltenyi Biotech, Germany) to yield a glutamine concentration of 5.5 g/L. Growth and productivity were measured using Chinese Hamster Ovary (CHO) cells (Subclone DG44; Life Technologies Cooperation, Carlsbad, USA).The results are summarized in Table 3. All titer-related information is given relative to the titer obtained by adding free glutamine to basal medium and feed. Accordingly, the relative cell-specific productivity was obtained by first dividing the relative titer by the integrated viable cell density (IVCD), then dividing this number by the titer/IVCD ratio for 100% free glutamine. The relative time-specific productivity was obtained by dividing the relative titer by the cultivation duration until the sampling, then dividing this number by the titer/cultivation time ratio for free glutamine.

[3] = basal medium source/feed source, 8 mM glutamine in medium, 5.5 g/L in feed

SMILES	Relative cell-specific productivity ([1]; acetyl-A-Q mixed with A-Q) [%]	Relative time-related productivity ([1]; acetyl-A-Q mixed with A-Q) [%]	Relative titer ([1]; acetyl-A-Q mixed with A-Q)	Cultivation time until 80% viability ([1]; acetyl-A-Q mixed with A-Q)	Integrated viable cell density (IVCD) ([1]; acetyl-A-Q mixed with A-Q)	Performance in batch cultivation, in words (titer, productivities) [1]	Relative cell-specific productivity ([1]; acetyl-A-Q mixed with free Q) [%]	Relative time-related productivity ([1]; acetyl-A-Q mixed with free Q) [%]	Relative titer ([1]; acetyl-A-Q mixed with free Q)	Cultivation time until 80% viability ([1]; acetyl-A-Q mixed with free Q)	Integrated viable cell density (IVCD) ([1]; acetyl-A-Q mixed with free Q)	Cultivation time until 80% viability [2, 3]	Integrated viable cell density (IVCD) [2, 3]	Relative cell-specific productivity ([2]; relative titer/IVCD relative to 100% free glutamine) [%]	Relative time-related productivity ([2]; relative titer/cultivation time relative to free glutamine) [%]	Relative titer ([2]; relative to titer with free glutamine in basal medium and feed)	Performance in fed-batch cultivation, in words (productivity, cell density, titer) ([2]; comparison of the combinations of Table 3)
C[C@H](N)C(=O)N[C@@H](CCC(N)=O)C(=O)O [100% AQ, alanyl-glutamine] (H-Ala-Gln-OH)	75	102	1.10	13.9	47.1	performs at a lower level in all relevant categories	–	–	–	–	–	–	–	–	–	–	–
NC(=O)CC[C@H](N)C(=O)O [100% Q, L-glutamine]	100	100	1.00	12.9	32.0	–	100	100	1.00	12.9	32.0	–	–	–	–	–	–
CC(=O)N[C@@H](C)C(=O)N[C@@H](CCC(N)=O)C(=O)O [Acetyl A-Q/acetyl-A-Q] (Ac-Ala-Gln-OH)	–	–	–	–	–	–	–	–	–	–	–	15.0	8.2	145	18	0.2	–
CC(=O)N[C@@H](C)C(=O)N[C@@H](CCC(N)=O)C(=O)O [100% acetyl-A-Q, acetyl-A-Q] (Ac-Ala-Gln-OH)	434	99	1.37	17.9	10.1	best values for relative titer and cell-specific productivity	434	99	1.37	17.9	10.1	–	–	–	–	–	very high cell-specific productivities, but very low cell density
